One test relates to β3GlcNAcT. Description: β3GlcNAcT acceptor specificity (relative enzyme activity). In kind it is biochemical, N. meningitidis. The following applies: substance used as acceptor substrate; Galβ(1-4)Glc = 100. From the text:
The inventors have previously cloned and characterized the bacterial N. meningitidis enzymes β4GalT-GalE and β3GlcNAcT. Blixt, O.;Brown, J.;Schur, M.;Wakarchuk, W. and Paulson, J. C., J. Org. Chem. 2001, 66, 2442-2448; Blixt, O.;van Die, I.;Norberg, T. and van den Eijnden, D. H., Glycobiol. 1999, 9, 1061-1071. β4GalT-GalE is a fusion protein constructed from β4GalT and the uridine-5'-diphospho-galactose-4'-epimerase (GalE) for in situ conversion of inexpensive UDP-glucose to UDP-galactose providing a cost efficient strategy.
Both enzymes, β4GalT-GalE and β3GlcNAcT, were over expressed in E. coli AD202 in a large-scale fermentor (100 L). Bacteria were cultured in 2YT medium and induced with iso-propyl-thiogalactopyranoside (IPTG) to ultimately produce 8-10 g of bacterial cell paste / L cell media. The enzymes were then released from the cells by a microfluidizer and were solubilized in Tris buffer (25 mM, pH 7.5) containing manganese chloride (10 mM) and Triton X (0.25%) to reach enzymatic activities of about 50 U/L and 115 U/L of cell culture β4GalT-GalE and β3GlcNAcT, respectively.
The structures of these disaccharides are provided below. [drawing 23] [drawing 24] [drawing 25] [drawing 26]
Adding the hydrophobic para-nitrophenyl ring as an aglycon to the reducing end of the acceptors enhanced the activity of the enzyme up to 10 fold (compare 4 with 5 and 6 with 7). The increase in the enzyme activity by adding a hydrophobic aglycon to the acceptor sugar, though to the lesser extent, has also been shown for β4GalT (compare 12 with 13,14). The relaxed substrate specificity of these enzymes makes them very useful for preparative synthesis of various carbohydrate structures, including poly-N-acetyllactosamines. Table 4. Selected β4GalT-GalE and β3GlcNAcT Specificity Data

Test [1] deals with 2G12 antibody. Description: Carbohydrate microarray analysis, microtiter-based, Scatchard plot (Kd). In kind it is binding, human. The following applies: for Kd: oligomannose immobilized as azide derivative on cleavable linker in microtiter plate, fluorescent secondary antibody. The method, then: Carbohydrate microarray analysis. Ninety-six well NHS-coated microtiter plates (NoAb Biodiscoveries) were treated with 200 µL of a 1 mM methanolic solution of the amino-functionalized disulfide and alkyne containing linker (scheme V) containing 5 % diisopropylethylamine (DIEA) and incubated overnight at 4°C. The microtiter plate was then washed with 2 x 200 µL methanol and 2 x 200 µL water. Next, 200 µL solutions of azido-functionalized oligomannose derivatives 21-25 at varying concentrations from 0 to 500 µM in 5 % DIEA / methanol were introduced. A sprinkle of copper (I) iodide was added and the contents were allowed to react overnight at 4°C. The next day, the contents were removed and the plates were washed with 2 x 200 µL methanol and 2 x 200 µL water. The plates were then blocked with 0.1 % Tween20 solution in HEPES buffer pH 7.5 at 4 °C for 1 hour and then washed with 3 x 200 µL HEPES buffer. Next, 200 µL of a 1 µg/mL solution of 2G12 antibody in 0.1 % Tween20 / PBS buffer was added to the wells for a 1 hour incubation at 4 °C and then washed with 2 x 200 µL PBS buffer. At this point, 200 µL of FITC-tagged goat anti-human IgG antibody (10 µg/mL in PBS, Cal Biochem) was added for 1 hour at 4 °C, and the wells were then washed with 2 x 200 µL PBS buffer. Detection of the FITC-tagged secondary antibody was performed in 200 µL water using a fluorescence plate reader. The resulting data yielded the oligomannose-2G12 binding isotherms and Scatchard plot analysis was implemented in the determination of dissociation constants. Adams et al. (2004) Chem. Biol. 11: 875-81.
Overall, many of the oligomannose derivatives can compete for binding of Man9GlcNAc2, and, therefore, may serve as building blocks for potential immunogens to elicit 2G12-like antibodies. Carbohydrate Microarray Analysis. Previous studies by the inventors using covalent microtiter plates with a panel of carbohydrate epitopes for interaction with 2G12 involved converting the amine-containing oligomannoses 4, 5, 7, 8 and 9 to the corresponding azide derivatives 21, 22, 23, 24 and 25. These derivatives were then covalently attached to a microplate-immobilized cleavable linker via the Cu (I)-catalyzed 1,3-dipolar cycloaddition reaction (FIG. 11B). Kd values for the interaction of 2G12 with oligomannoses 4, 5, 7, 8, 9 (Table 9) were determined using a microtiter-based assay with detection via a fluorescent secondary antibody (see Bryan et al.(2004) J. Am. Chem. Soc. 126, 8640-41). Table 9: The Kd values of oligomannoses 1 and 4, 5, 7, 8, 9 binding to 2G12, as determined by carbohydrate microarray analysis.

In test [2] the test system is MBr1 anti-Globo H monoclonal antibody (IgM). Put plainly: Microarray analysis of Globo H derivatives with MBr1 antibody. It counts as binding, mouse. The following applies: sugars spotted on NHS-coated glass slide; FITC secondary antibody. As for the experimental part:
NHS-coated glass slides were spotted with methanolic solutions of sugars 201-204a with concentrations of 5, 10, 20, 30, 40, 50, 60, 80 and 100 µM from bottom to top with ten duplicates horizontally placed in each grid. This attachment procedure is illustrated in FIG. 12. The slide was washed with PBS buffer for one minute.
This solution was added below the printed grid of sugars and then spread through the application of a coverslip. Incubation in a glass humidifying chamber was performed with shaking for 1 hour. Following this, the slide was washed 5x with 0.05 % tween20 / PBS buffer, 5x with PBS buffer and 5x with water. Next, 200 µL of a 70 µg/mL solution of FITC-tagged goat anti-mouse antibody (Cal Biochem) was formed and added to the slide as before. […] A fluorescence scan was then performed on the slide. The resulting image was analyzed using the program Imagene to locate and quantify the fluorescence of all the spots within the grid.
Disulfide linker immobilization (of type 217): The BOC protected derivative of disulfide linker 215 (3.9 mg, 13.5 µmol) was dissolved in 1 mL of dichloromethane and 1 mL trifluoroacetic acid was added. […] These solutions were spotted on a solid surface and analyzed along side 201-204a. […]
Images such as the one shown in FIG. 13 could then be processed using the program Imagene to encircle and quantify the fluorescence of each spot. […]

The test system of another test is chST6GalNAc-I. Put plainly: chST6GalNAc-I activity on small acceptor molecules (α-D-galacto derivatives). In kind it is biochemical, chicken. The note with it: substance used as acceptor. From the text: The inventors have previously reported the cloning, expression, and characterization of chicken ST6GalNAc-I and its use in preparative synthesis of the O-linked sialoside antigens, STn-, α(2-6)SiaT-, α(2-3)SiaT- and Di-SiaT-antigen. Blixt, O.;Allin, K.;Pereira, L.;Datta, A. and Paulson, J. C., J. Am. Chem. Soc. 2002, 124, 5739-5746. Briefly, the recombinant enzyme was expressed in insect cells and purified by CDP-sepharose affinity chromatography to generate approximately 10 U/L of cell culture. The enzymatic activity was evaluated on a set of small acceptor molecules. […] Table 6. chST6GalNAc-I Activity of α-D-Galacto Derivatives

Test [3] has as its target 2G12 antibody. Put plainly: 2G12 binding study on cleavable linker glycan array in microtiter plates (Kd). The arrangement: species or system human. The note with it: binding to 2G12 antibody. The method, then: Cleavable Linker Glycan Array in Microtiter Plates: Further experiments were performed using glycans immobilized within microtiter wells with the cleavable triazole linkers described in Example 7 as shown in FIG. 11.
2G12 Binding: After washing with QH2O, wells were blocked with 10 mM HEPES buffer, pH 7.5/150 mM NaCl buffer (200 µL) containing 0.1% Tween-20 over 1 h at 4 °C. The buffer was then removed and 2G12 (17 µg/mL PBS buffer; 200 µL) was incubated in the well over 1 h at 4°C. Wells were then washed with PBS buffer (3×; 200 µL) and fluorescein-conjugated Goat Anti-Human IgG antibody (14 µg/mL PBS buffer; 200 µL) was incubated in the well over 1 h in the dark at 4 °C. Wells were then washed with PBS buffer (3×; 200 µL) and fluorescence was measured with an excitation wavelength of 485 nm and emission wavelength of 535 nm.
Further studies were performed using a cleavable linker array to clarify the types of mannose-containing glycans bound by the 2G12 anti-HIV antibodies. […] The results of a binding study using increasing amounts of labeled Manα1,2Manα1,3Manα1,2 Manα1,6Man glycan with a constant amount of 2G12 antibody are shown in FIG. 16.

`OCC1O[C@@H](O)C(O)[C@@H](O)[C@@H]1O[C@@H]1OC(CO)[C@H](O)[C@H](O)C1O` (stereo partly drawn) [Compound 4]: the “Relative enzyme activity (%) β(1-3)GlcNAcT-activity” value with β3GlcNAcT is recorded as 100%. On 2G12 antibody [1], this molecule had an equilibrium dissociation constant (Kd) of 100 nM.

With `O=[N+]([O-])c1ccc(O[C@@H]2OC(CO)[C@@H](O[C@@H]3OC(CO)[C@H](O)[C@H](O)C3O)[C@H](O)C2O)cc1` (stereo partly drawn) [Compound 5], the “Relative enzyme activity (%) β(1-3)GlcNAcT-activity” value in the test with β3GlcNAcT is listed as 945%. The molecule further registered a Kd at 2G12 antibody [1] of 100 nM.

In the case of `C[C@@H]1O[C@@H](O[C@H]2[C@H](OCCCCCN)O[C@H](CO)[C@H](O)[C@@H]2O)[C@@H](O)[C@H](O)[C@@H]1O` [Compound 201a], in test [2], the “binding of MBr1 antibody to immobilized sugar (in words)” value is reported as “no recruitment of antibody to the surface”.

For `CC(=O)N[C@H]1[C@H](O[C@H]2[C@@H](O)[C@@H](CO)O[C@H](O[C@@H]3[C@H](O)[C@@H](O)[C@H](O[C@H]4[C@H](O)[C@@H](O)[C@H](OCCCCCN)O[C@@H]4CO)O[C@@H]3CO)[C@@H]2O)O[C@H](CO)[C@H](O)[C@@H]1O[C@@H]1O[C@H](CO)[C@H](O)[C@H](O)[C@H]1O[C@@H]1O[C@@H](C)[C@@H](O)[C@@H](O)[C@@H]1O` [Compound 204a], in test [2], the “binding of MBr1 antibody to immobilized sugar (in words)” value is “greatest affinity”.

As for `CC(=O)N[C@H]1C(O)O[C@H](CO)[C@H](O)[C@@H]1O` (stereo partly drawn) [D-GalNAc], in the test on chST6GalNAc-I, the “chST6GalNAc-I Activity, cpm” value was determined as 0 cpm and the “chST6GalNAc-I Activity, nmol/mg x min^-1” value is given as 0.00 nmol/mg x min^-1.

On to `NCCCCCO[C@H]1O[C@H](CO)[C@@H](O)[C@H](O[C@H]2O[C@H](CO)[C@@H](O)[C@H](O)[C@@H]2O[C@H]2O[C@H](CO)[C@@H](O)[C@H](O)[C@@H]2O[C@H]2O[C@H](CO)[C@@H](O)[C@H](O)[C@@H]2O)[C@@H]1O` [Oligomannose 4], for which the “affinity for 2G12 antibodies (in words)” value with 2G12 antibody [1] (microtiter plate array) is “greatest affinity”.

Turning to “Manα1,2Manα1,2Manα1,3(Manα1,2Man1,2Man1.6)Man”, the Kd on 2G12 antibody [3] turned out to be 700 nM.

Turning to Manα1,2Manα1,3Manα1,2 Manα1,6Man, the Kd at 2G12 antibody [3] was found to be 100 nM.

On to “Manα 1,2Manα1 ,2Manα1 1,3(Manα1,2Man1,3 (Manα1.2Manα1 ,2Manα 1.6) )Man”, for which, on 2G12 antibody [3], binding was characterised by a dissociation constant (Kd) of 1000 nM.

Values taken from patent publication EP1862466A2, “Arrays with cleavable linkers” (THE SCRIPPS RESEARCH INSTITUTE, priority 2004, dated 2006).
